Measured values reported in publication PMC9897432 (Proceedings of the National Academy of Sciences of the …, 2022).

Assays:
[1] = tested on: panel of 300 recombinant human kinases; assay type: biochemical; conditions: 0.5 µM, panel of 300 kinases
[2] = tested on: osteoclastogenesis; conditions: via off-target actions on M-CSF signaling; cited from earlier work

COc1ccc(N2C(=O)N(c3c(C)cccc3Cl)Cc3cnc(Nc4ccc(C5CCN(C)CC5)cc4OC)nc32)nc1 [YKL-05-099]
S(80): portion of kinases tested inhibited >80% [1]: 43/300 | osteoclast maturation (in words) [2]: directly blocks osteoclast maturation
